In publication PMC5983823, “Screening of Natural Product Derivatives Identifies Two Structurally Related Flavonoids as Potent Quorum Sensing Inhibitors against Gram-Negative Bacteria” (International Journal of Molecular Sciences, 2018):
Like-named read-outs stand apart in the source and are kept apart here.

Columns and labels:
[1] = system: C. violaceum ATCC 31532; assay: Violacein extraction assay (QS-mediated violacein production); type: cell-based, Chromobacterium violaceum; conditions: for inhibition at 400 µM: ATCC31532, 24 h, read-out: Inhibition-% of violacein production
Description: (§1) The initial screening of compound library was conducted using two strains of C. violaceum as model bacterium, and two assays (violacein extraction and resazurin staining) in parallel as recently optimized in [26]. For the screening assays, overnight cultures of C. violaceum were diluted in LB broth supplemented with yeast extract (LBY) (0.1% w/v, Sigma Aldrich, St. Louis, MO, USA). Culture of C. violaceum CV026 was further supplemented with 0.5 µM N-(β-ketocaproyl)-L-Homoserine lactone (3-O-C6-(L)-HSL, Cayman chemicals, Ann Arbor, MI, USA) to induce the violacein production. Bacteria (10^6 CFU/mL) was exposed to compounds (400 µM) in a total volume of 200 µL in 96-microtiter well plates (Nunc, Roskilde, Denmark), and incubated at 27 °C, with shaking at 200 rpm for 24 h. DMSO was added in untreated control wells and bacteria-free wells with only LBY were included controls. Additionally, autoinducer-free wells containing only bacteria were included in C. violaceum CV026 plates. Plates were prepared in duplicates. Quercetin dihydrate (Carl Roth GmbH, Karlsruhe, Germany) at 400 µM was used as positive control in violacein extraction assay, and azithromycin (Cayman chemicals, Ann Arbor, MI, USA) at 10 µM in viability assay. Both control compounds were prepared in DMSO. DMSO concentration was 2.5% throughout the experiments.
(§2) After incubation period of 24 h, plates were centrifuged (Allegra™ X-12R Benchtop centrifuge, Beckman Coulter Inc., Fullerton, CA, USA) at 3000 rpm for 10 min to precipitate the violacein. Supernatants were discarded from the wells by pipetting, and pellets were re-suspended in 200 μL of 96% ethanol by scraping and mixing followed by centrifugation (3000 rpm, 10 min). Thereafter, 100 μL of supernatants were transferred to sterile 96-microtiter well plates, and violacein was quantified by reading the optical density at 595 nm using Varioskan Flash. Inhibition of violacein production was expressed as inhibition percentages of the untreated biofilms (Equation (1)):Inhibition-% = [(untreated control OD595 − sample OD595)/(untreated control OD595 − media control OD595)] × 100%(1) in which untreated control = C. violaceum + DMSO, media control = LBY, and sample = C. violaceum treated with a compound. Later on, violacein extraction assay was also utilized for the determination of half inhibitory concentrations of the compounds.

[2] = system: C. violaceum CV026; assay: Violacein extraction assay (QS-mediated violacein production), mutant strain with exogenous autoinducer; type: cell-based, Chromobacterium violaceum; conditions: for inhibition at 400 µM: Chromobacterium violaceum, CV026, 24 h, read-out: Inhibition-% of violacein production
Description: as §1, §2

[3] = system: C. violaceum ATCC 31532; assay: Violacein extraction assay (QS-mediated violacein production); type: cell-based; conditions: Chromobacterium violaceum
[4] = system: cancer cell lines; parameters: method as in ref 56 = [56]; 56. National Center for Biotechnology Information PubChem BioAssay Database Available online: https://pubchem.ncbi.nlm.nih.gov/bioassay/924 (accessed on 28 March 2018); conditions: PubChem Bioassay database ref 56; cited from earlier work
[5] = system: human lung (HL) epithelial cells; assay: Cytotoxicity testing (CellTiter Glo); type: cell-based; conditions: 200 µM, 24 h exposure, positive control
Description: (§3) Human lung (HL) epithelial cells were grown in RPMI 1640 (Biowhittaker, Lonza, Viewers, Bornem, Belgium) supplemented with 10% inactivated fetal bovine serum (FBS), 2 mM L-glutamine and gentamycin 20 µg/mL, and mouse monocyte macrophage RAW 264.7 cells in DMEM medium supplemented with 10% FBS and 20 µg/mL gentamycin. Cells (3 × 10^5 cells/mL) were seeded into 96-microtiter well plates (Cellstar TC, Greiner Bio-One GmbH, Frickenhausen, Germany), 200 µL per well, and incubated at 37 °C in 5% CO2 24 h before exposure to the compounds. After the incubation, culture medium was discarded, the wells were washed with PBS, and the compound dilutions prepared in culture media were added as triplicates to a final volume of 200 µL. Usnic acid (200 µM, Sigma Aldrich, St. Louis, MO, USA) was included as positive control and DMSO (1%) as solvent control. Plates were incubated for additional 24 h. At the end of 24 h, media was removed, wells were washed twice with PBS and 100 µL of PBS was added. CellTiter Glo® reagent (Promega, Madison, WI, USA) was prepared according to manufacturer’s instructions, and 100 µL was added to the wells. The plates were shaken for two minutes and equilibrated at room temperature for 10 min prior to measuring the luminescence using Varioskan LUX multimode plate reader (Thermo Scientific, Vantaa, Finland). Inhibition of cell viability was calculated in relation to the untreated cells.

[6] = system: mouse monocyte macrophage (RAW 264.7) cells; assay: Cytotoxicity testing (CellTiter Glo); type: cell-based; conditions: 200 µM, 24 h exposure, positive control
Description: as §3

[7] = Chromobacterium violaceum, primary screening, 400 µM, 24 h, C. violaceum ATCC 31532
[8] = ATCC31532, 40 µM, C. violaceum ATCC 31532, mean ± SD of three independent tests, read-out: Inhibition-% of violacein production
[9] = ATCC31532, read-out: Inhibition-% of violacein production

Compound `CC(C)COc1ccc(C(=O)N/C(=C\c2ccccc2)C(=O)NCCNC(=O)/C(=C\c2ccccc2)NC(=O)c2ccc(OCC(C)C)cc2)cc1` [Compound 2, (2E)-N-[2-((2Z)-2-{[4-(2-methylpropoxy)phenyl]carbonylamino}-3-phenylprop-2-enoylamino)ethyl]-2-{[4-(2-methylpropoxy)phenyl]carbonylamino}-3-phenylprop-2-en amide] has an inhibition at 400 µM [1, 7] of 19%.

For `O=C(NCCCCCCNC(=O)/C(=C\c1ccccc1)NC(=O)c1ccccc1)/C(=C/c1ccccc1)NC(=O)c1ccccc1` [Compound 3, (2E)-N-{6-[(2Z)-3-phenyl-2-(phenylcarbonylamino)prop-2-enoylamino]hexyl}-3-phenyl-2-(phenylcarbonylamino)prop-2-enamide], the inhibition at 400 µM [1, 7] was 41% and the inhibition at 400 µM [2] was 41.3%.

`Nc1ccn(C2OC(CO)C3OP(=O)(O)OC32)c(=O)n1` (stereo not drawn) [Compound 144, 8-(4-amino-2-oxohydropyrimidinyl)-3-hydroxy-6-(hydroxymethyl)-2,4,7-trioxa-3-phosphabicyclo[3.3.0]octan-3-one] showed an inhibition at 400 µM [1, 7] of 94.7%, an inhibition at 400 µM [2] of 97.2% and an inhibition at 40 µM [3, 8] of 0%.

`C=C(CBr)C1Cc2c(ccc3c2OC2COc4cc(OC)c(OC)cc4C2C3=O)O1` (stereo not drawn) [Compound 341, 2-[1-(bromomethyl)vinyl]-8,9-dimethoxy-1,2-dihydrochromano[3,4-b]furano[2,3-h]chroman-6-one] showed an inhibition at 400 µM ([1]; Chromobacterium violaceum) of 93.4%, an inhibition at 400 µM [2] of 95.2% and an inhibition at 40 µM [3, 9] of 26.9 ± 7.7%.

In the case of `O=c1c(O)c(-c2cccnc2)oc2ccc(Cl)cc12` [Compound 575, 6-chloro-3-hydroxy-2-(3-pyridyl)chromen-4-one], the inhibition at 400 µM [1, 7] is given as 94.1%, the inhibition at 400 µM [2] is given as 94.3% and the Anti-cancer activity [4] is given as “not active”. For the same compound, the inhibition at 40 µM [3, 8] was 60.9 ± 4.1%.

In the case of `COc1ccc2c(c1)c(CC(=O)NCCCN1CCCCC1)c(C)n2C(=O)c1ccc(Cl)cc1` [Compound 712, 2-{1-[(4-chlorophenyl)carbonyl]-5-methoxy-2-methylindol-3-yl}-N-(3-piperidylpropyl)acetamide], the inhibition at 400 µM [2] is reported as 94.3%.

With `C1COCCN1.COC(=O)C1=C(C)NC(S)=C(C#N)C1c1cc(OC)c(OC)c(OC)c1` (stereo not drawn) [Compound 1016, methyl 5-cyano-2-methyl-6-sulfanyl-4-(3,4,5-trimethoxyphenyl)-1,4-dihydropyridine-3-carboxylate, morpholine] the “Inhibition-% of violacein production” value ([1]; primary screening, 400 µM, 24 h, C. violaceum ATCC 31532) was 34.1% and the “Inhibition-% of violacein production” value ([2]; primary screening, 400 µM, 24 h, C. violaceum CV026) was 97.5%.

`Cc1cc(C(=O)NC(Cc2ccccc2)C(=O)O)c(C)o1` (stereo not drawn) [Compound 1214, 2-[(2,5-dimethyl(3-furyl))carbonylamino]-3-phenylpropanoic acid] gave an inhibition at 400 µM [2] of 103%.

In the case of `Cc1ccc2c(C)c(-c3ccc(Cl)cc3)c(=O)oc2c1` [Compound 1352], the inhibition at 400 µM [1, 7] is reported as 18.8% and the inhibition at 400 µM [2] is reported as 99.6%.

In the case of `CCN(CC)C(=O)c1cc(=O)n(CC(=O)Nc2c(C)cc(C)cc2C)c2ccccc12` [Compound 1406, 2-[4-(N,N-diethylcarbamoyl)-2-oxohydroquinolyl]-N-(2,4,6-trimethylphenyl)acetamide], the inhibition at 400 µM [1, 7] is reported as 40% and the inhibition at 400 µM [2] is reported as 93.3%.

For `CCn1cnc2cc(NC(=O)c3cc(OC)c(OC)c(OC)c3)ccc2c1=O` [Compound 1508, N-(3-ethyl-4-oxo(3-hydroquinazolin-7-yl))(3,4,5-trimethoxyphenyl)carboxamide], the inhibition at 400 µM [2] was 93.4%.

`COc1cc([C@H]2OC[C@@H]3C(c4ccc(OC5OC(COC6OC(C)C(O)C(O)C6O)C(O)C(O)C5O)c(OC)c4)OC[C@H]23)ccc1O` (stereo partly drawn) [Compound 1698, 2-[(6-{4-[(6S,1R,5R)-6-(4-hydroxy-3-methoxyphenyl)-3,7-dioxabicyclo[3.3.0]oct-2-yl]-2-methoxyphenoxy}-3,4,5-trihydroxy(2H-3,4,5,6-tetrahydropyran-2-yl))methoxy]-6-methyl-2H-3,4,5,6-tetrahydropyran-3,4,5-triol] gave an inhibition at 400 µM [1, 7] of 91.3%, an inhibition at 400 µM [2] of 96.1% and an inhibition at 40 µM [3, 8] of 2.6 ± 4.6%.

Work on `CCOc1ccc2oc(=O)cc(CN3CCNCC3)c2c1` [Compound 1852, 6-ethoxy-4-(piperazinylmethyl)chromen-2-one] yielded an inhibition at 400 µM [1, 7] of 29.7% and an inhibition at 400 µM [2] of 95.2%.

Compound `O=C(CSc1nc2c(=O)[nH]cnc2n1CC1CCCO1)Nc1ccc(F)c(Cl)c1` (stereo not drawn) [Compound 1905, N-(3-chloro-4-fluorophenyl)-2-[6-oxo-9-(oxolan-2-ylmethyl)hydropurin-8-ylthio] acetamide] has an inhibition at 400 µM [1, 7] of 4.7% and an inhibition at 400 µM [2] of 107%.

Work on `Cc1sc(N)nc1-c1c[nH]c2ccccc12` [Compound 2307, 4-indol-3-yl-5-methyl-1,3-thiazole-2-ylamine] yielded an inhibition at 400 µM [1, 7] of 98.8%, an inhibition at 400 µM [2] of 98.6% and an inhibition at 40 µM [3, 8] of 76.1 ± 3.3%.

In the case of `COc1ccc(/C=C/C(=O)c2ccc(O)cc2C)cc1` [Compound 2372, (2E)-1-(4-hydroxy-2-methylphenyl)-3-(4-methoxyphenyl)prop-2-en-1-one], the inhibition at 400 µM [1, 7] is reported as 18.3% and the inhibition at 400 µM [2] is reported as 91.1%.

Compound `NC(=O)CC1CCCCN1` (stereo not drawn) [Compound 2584, 2-(2-piperidyl)acetamide] has an inhibition at 400 µM [1, 7] of 20.5% and an inhibition at 400 µM [2] of 106%.

`CCOc1ccc(C2NCCc3c2[nH]c2ccccc32)cc1` (stereo not drawn) [Compound 2666, 4-ethoxy-1-(1,2,3,4-tetrahydrobeta-carbolinyl)benzene] gave an inhibition at 400 µM [2] of 90.8%.

Compound `O=c1cc(C(Cl)(Cl)Cl)oc2ccccc12` [Compound 2712, 2-(trichloromethyl)chromen-4-one] has an inhibition at 400 µM [2] of 106%.

Work on `COc1ccccc1-c1c(C(F)(F)F)oc2cc(OC(=O)c3ccccc3F)ccc2c1=O` [Compound 2909, 3-(2-methoxyphenyl)-4-oxo-2-(trifluoromethyl)chromen-7-yl 2-fluorobenzoate] yielded an inhibition at 400 µM [1, 7] of 12.1% and an inhibition at 400 µM [2] of 99.9%.

In the case of `O=C(CCc1cccc(F)c1)NC(CO)C(O)c1ccccc1` (stereo not drawn) [Compound 2916, 3-(3-fluorophenyl)-N-[2-hydroxy-1-(hydroxymethyl)-2-phenylethyl]propanamide], the inhibition at 400 µM [1, 7] is reported as 19.7% and the inhibition at 400 µM [2] is reported as 98.3%.

`O=c1c(O)c(-c2ccc(O)c(O)c2)oc2cc(O)cc(O)c12` [Que, quercetin, reference compound] gave an inhibition at 400 µM ([1]; Chromobacterium violaceum) of 99.7%, an IC50 ([1]; Chromobacterium violaceum, ATCC31532, read-out: IC50 of violacein production) of 3.1 µM and an inhibition at 400 µM [2] of 98.9%. For the same compound, the inhibition at 40 µM [3, 9] was 91.8 ± 2.3%.

For `CC(=O)c1c(O)c(C)c(O)c2c1OC1=CC(=O)C(C(C)=O)C(=O)C12C` (stereo not drawn) [Usnic acid, reference compound], the “Inhibition-% of cell viability” value [5] was 90.0 ± 4.7% and the “Inhibition-% of cell viability” value [6] was 98.5 ± 0.6%.
